The record followed here is patent US20200031811A1, “SUBSTITUTED MONO- AND POLYAZANAPHTHALENE DERIVATIVES AND THEIR USE” (Basilea Pharmaceutica International AG, priority 2015, published 2020).

The target in one assay is T1, MNK1 (Homo sapiens, UniProt Q9BUB5).
T1 construct: purchased Life Technologies or Carna Biosciences PV6023 or 02-145; host or cells: baculovirus infected insect cells
Briefly: MNK inhibition assay (Z-Lyte kinase assay, Ser/Thr 7 peptide). It is filed as biochemical. Particulars: for IC50: recombinant GST-MNK1, 3 hours at 31° C. The text has this:
For the measurement of the activity of the MNK1 kinase the Z-Lyte kinase assay system was used. The kinase activity of MNK1 can be quantified with the Z-Lyte kinase assay kit Ser/Thr 7 peptide (Life Technologies PV3180). The kit was utilized according to the instructions of the provider. A recombinant GST-MNK1 fusion protein produced in and purified from baculovirus infected insect cells was used as enzyme source (GST-MNK1 Life Technologies PV6023 or Carna Biosciences 02-145). It was verified that both sources of the MNK1 enzyme gave similar IC50 values with several compounds. The MNK1 enzyme assay was performed in 384 well round bottom black microtiter plates (Corning 3676). The kinase reaction was performed for 3 hours at 31° C. As instructed by the provider of the kit the amount of enzyme was chosen such that ˜30% of the substrate peptide was phosphorylated in control wells containing buffer only. The MNK1 inhibiting activity of compounds was tested by adding the compounds to the kinase reaction at a concentration of 10000, 5000, 2000, 1000, 500, 200, 100, 50 nM. Compounds with strong MNK1 inhibition were tested at 20, 10, 5, 2, 1 and 0.5 nM in addition. Each compound concentration was tested at least in duplicate. The % phosphorylation of the substrate peptide at each compound concentration was calculated as described in the assay manual. The fluorescent signals were recordes on Biotek Cytation 3 microplate reader. The IC50, the concentration that reduced substrate phosphorylation by 50% if compared to buffer only wells, was calculated with the Grafit 6 software (Erythacus software).

Assay [1] deals with human pancreatic cancer cell line MiaPaCa2 (ATCC CRL-1420). Briefly: Cell growth assay (CellTiterGlo, 72 hours). It counts as cell-based. Particulars: MIA PaCa-2, MiaPaCa2 cells, 72 hours, read-out: IC50 MiaPaCa. Here is the method: The inhibition of cell growth by the compounds was tested by exposing the human pancreatic cancer cell line MiaPaCa2 (ATCC CRL-1420) to the compounds. The assay was performed in 384 well clear bottom white microtiter plates (Greiner #781098). Each well was seeded with 10^3 cells in 20 μl of Dulbecco's modified Eagle's medium (Sigma D6796) supplied with 10% fetal calf scrum (Sigma F7524), 2.5% horse serum (Sigma H0146), 1% Penicillin-Streptomycin (Sigma P0781), 1% MEM nonessential amino acid solution 100× (Sigma M71459) and 1% 200 mM L-Glutamine (Sigma G7513) culture medium. After overnight incubation at 37° C. in 5% CO2 the compounds were added in the following concentrations: 100, 50, 20, 10, 5, 2, 1, 0.5, 0.2 and 0.1 μM. Each compound concentration was tested in quadruplicate. The incubation was then continued for 72 hours. After 72 hours the growth of the cells was assessed by the addition of the CellTiterGlo reagent (Promega G9242) as instructed by the provider. The luminescent signal was recorded on a SpectraMax M2 microplate reader. The signal obtained in wells containing cells cultivated in the absence of compound was set to 100% growth after subtracting the signal obtained in medium only wells. The % growth in each well was calculated by subtracting the medium only value and dividing through the 100% growth value. The IC50 for cell growth, the concentration of compound at which cell growth was reduced to 50%, was calculated with the GraFit6 software (Erythacus software).
A general note: In ATP-based viability assays light output follows the ATP content of the culture.

T1 sequence (Q9BUB5 whole entry): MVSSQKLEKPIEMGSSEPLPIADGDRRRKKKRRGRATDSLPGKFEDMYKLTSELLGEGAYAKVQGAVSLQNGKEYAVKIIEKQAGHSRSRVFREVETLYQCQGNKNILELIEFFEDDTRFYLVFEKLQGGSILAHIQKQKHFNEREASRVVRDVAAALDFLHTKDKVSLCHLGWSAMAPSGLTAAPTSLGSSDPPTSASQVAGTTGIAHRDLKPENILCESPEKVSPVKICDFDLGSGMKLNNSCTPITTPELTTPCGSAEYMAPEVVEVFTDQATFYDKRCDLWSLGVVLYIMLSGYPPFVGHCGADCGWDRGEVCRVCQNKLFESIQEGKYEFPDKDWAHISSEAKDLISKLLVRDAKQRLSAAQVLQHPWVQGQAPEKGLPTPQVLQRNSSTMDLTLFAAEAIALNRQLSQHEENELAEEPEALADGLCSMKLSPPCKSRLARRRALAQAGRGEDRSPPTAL

As to `Oc1ccc(-c2cncc3ccc(CN4CCOCC4)cc23)cc1` [Example 26], on MNK1 (at 1 μM, read-out: Inhibition of MNK1 activity at indicated concentration), the inhibition at 1 µM worked out at 40%. The 50% inhibitory concentration (IC50) – broadly, the concentration that inhibits the measured activity by half – in assay [1] came to 54.3 µM.

`NC1CCN(Cc2cc(Cl)c3cncc(-c4ccc(Cl)cc4)c3c2)CC1` [Example 237]: the 50% inhibitory concentration (IC50) on MNK1 is 426 nM; in assay [1] it was 7.8 µM.

For the molecule `Nc1ncc(-c2cccc(F)c2)c2cc(CN3CCC(N)CC3)ccc12` [Example 220], the values for the half-maximal inhibitory concentration (IC50) (at MNK1; in assay [1]) were 1470 nM and 4.28 µM, respectively.

On to `NC1CCN(Cc2ccc3cncc(-c4ccsc4)c3c2)CC1` [Example 180], for which the values for the IC50 (at MNK1; in assay [1]) were 177 nM and 12.1 µM, respectively.

Consider `NC1CCN(Cc2ccc3nncc(-c4ccc(Cl)cc4)c3c2)CC1` [Example 145, 1-[[4-(4-Chlorophenyl)cinnolin-6-yl]methyl]piperidin-4-amine], for which the concentration for half-maximal inhibition (IC50) on MNK1 amounted to 2720 nM; in assay [1] it was 29 µM.

`CN(c1ccc2cncc(-c3cc4ccccc4o3)c2c1)C1CCNCC1` [Example 211]: the figures for the concentration for half-maximal inhibition (IC50) (at MNK1; in assay [1]) were 425 nM and 5.57 µM, respectively.

Take `Nc1ncc(-c2cc(Cl)cc(Cl)c2)c2cc(CN3CCC(N)CC3)ccc12` [Example 218]: the IC50 came to 5720 nM at MNK1 and 2.47 µM in assay [1].

`Nc1cc(CNc2ccc3cncc(-c4cc5ccccc5o4)c3c2)ccn1` [Example 190, N-[(2-Amino-4-pyridyl)methyl]-4-(benzofuran-2-yl)isoquinolin-6-amine]: the IC50 at MNK1 is 87 nM; in assay [1] it was 7.44 µM.

Turning to `Nc1ncc(-c2cc3ccccc3o2)c2cc(CN3CCC(N)CC3)ccc12` [Example 153, 6-[(4-Amino-1-piperidyl)methyl]-4-(benzofuran-2-yl)isoquinolin-1-amine], the results for the 50% inhibitory concentration (IC50) (at MNK1; in assay [1]) were 131 nM and 3.5 µM, respectively.

Consider `NCCNCc1ccc2cncc(-c3ccc(O)cc3)c2c1` [Example 24], for which the values for the 50% inhibitory concentration (IC50) (at MNK1; in assay [1]) were 926 nM and 45.5 µM, respectively.

As to `NC1CCN(Cc2ccc3cncc(-c4cc5ccccc5o4)c3c2)c2ccccc21` (stereo not shown) [Example 207], the half-inhibitory concentration (IC50) was determined as 606 nM on MNK1 and 8.04 µM in assay [1].

In the case of `NC1CCN(Cc2ccc3cncc(-c4cc5ccccc5s4)c3c2)CC1` [Example 170], the half-inhibitory concentration (IC50) at MNK1 amounted to 361 nM; in assay [1] it was 2.6 µM.

With `c1ccc2oc(C3CNNc4ccc(CNc5ccncc5)cc43)cc2c1` (stereo not shown) [Example 277, N-[[4-(Benzofuran-2-yl)-1,2,3,4-tetrahydrocinnolin-6-yl]methyl]pyridin-4-amine], the IC50 at MNK1 was found to be 131 nM; in assay [1], 5.76 µM.

For `Nc1ncc2ccc(CNc3ccncc3)cc2c1-c1cc2ccccc2o1` [Example 165, 4-(Benzofuran-2-yl)-6-[(4-pyridylamino)methyl]isoquinolin-3-amine], the concentration for half-maximal inhibition (IC50) on MNK1 was determined as 6 nM; in assay [1] it was 5.7 µM.

Turning to `Nc1ncc(-c2cc3ccccc3o2)c2cc(NCc3ccncc3)ccc12` [Example 233, 4-(Benzofuran-2-yl)-N6-(4-pyridylmethyl)isoquinoline-1,6-diamine], the IC50 stood at 4300 nM at MNK1 and 6.8 µM in assay [1].

Turning to `NC1CCN(Cc2ccc3cncc(-c4cccc(NC(=O)Nc5ccccc5)c4)c3c2)CC1` [Example 32], the IC50 on MNK1 came out at 2410 nM; in assay [1], 8.4 µM.

In the case of `Nc1ncc(-c2ccccc2)c2cc(O[C@H]3CC[C@H](N)CC3)cc(Cl)c12` [Example 319], the concentration for half-maximal inhibition (IC50) at MNK1 amounted to 38 nM; in assay [1], 2.85 µM.

`NC1CCN(Cc2cc(F)c3cncc(-c4cc5ccccc5o4)c3c2)CC1` [Example 247]: the concentration for half-maximal inhibition (IC50) on MNK1 was found to be 228 nM; in assay [1], 8.4 µM.

In the case of `Nc1cc[n+](Cc2ccc3cncc(-c4cc5ccccc5o4)c3c2)cc1C(F)(F)F` [Example 58], the results for the half-inhibitory concentration (IC50) (on MNK1; in assay [1]) were 50 nM and 13.6 µM, respectively.

With `NC1CCN(Cc2ccc3cncc(-c4nc5ccccc5s4)c3c2)CC1` [Example 227, 1-[[4-(1,3-Benzothiazol-2-yl)-6-isoquinolyl]methyl]piperidin-4-amine], the concentration for half-maximal inhibition (IC50) on MNK1 came out at 1020 nM; in assay [1], 4.43 µM.
